Measured values: patent US9211278B2, “Composition containing arylnaphthalene lignan derivative for preventing and/or treating dementia” (KOREA INSTITUTE OF SCIENCE AND TECHNOLOGY, priority 2012, dated 2015)

What was measured:
[1] = test system: APP targeted to plasma membrane (maAPP); assay: Targeting of mature APP (maAPP) to plasma membrane, biotinylation method; assay type: cell-based, human
Experimental: It is reported that APP made in ER, then passed through Golgi, targeted to plasma membrane, in the maAPP form. APP hydrolysis was performed by alpha-secretase, sAPPα secretion was increased, and Aβ secretion, made by beta secretase, was decreased. Relative amount of maAPP increased by Justicidin A, amount of APP targeted to plasma membrane was measured by biotinylation method.
Hela cell line, transfected with the amyloid precursor protein (APP), was incubated in DMEM (Cat. #11995, Gibco, USA). The cell line was received from Prof. Tae-Wan Kim at Department of Pathology, Columbia University Medical Center, New York, N.Y. 10032, USA. 1.5×10^6 cells seeded in 60 mm dish, incubated for 24 hours. […] Avidin (S 1638, Sigma), specifically interacted to biotin, added to pellet (30 ul, 4° C., incubated for 30 min) for precipitation biotinylated protein, and precipitated protein was performed electrophoresis, then measured change of APP protein, exposed protein of outside of cell, by western blotting with APP antibody (1:2000 diluted, A8717, Sigma).
When Justicidin A was treated for 1 hour, the biotinylated APP was increased as the concentration increased 0.03, 0.1, and 0.25 uM, the and the molecular weight was the same as O-glycosylated APP (maAPP) (FIG. 7a). The result of western blotting was measured by band intensity to show the result in FIG. 7b. […]

male ICR mouse = assay: Morris water maze test, scopolamine-impaired memory model; assay type: in vivo; settings: oral, 1, 5, 10 and 20 mg/kg, compared to scopolamine group
Experimental: The male ICR mouse was 5 to 6-week age (25-30 g of body weight) (Orientbio Inc., Seougnam, Republic of Korea), and was raised with solid feed and tap water for 1 week before being used for test. At a first day, the normal control group and the group administered by the scopolamine were fed with 5% (v/v) DMSO-saline, the test group was orally administered by 1, 5, 10 and 20 mg/kg/10 ml of Justicidin A (C1) in 5% DMSO-Saline, and the comparative group was administered with 2 mg/kg/10 ml of Donepezil (brand name: Aricept, Eisai) being commercially available as a drug for treating an dementia of the Alzheimer's type. […]
The same test was performed repetitively twice per a day for 4 days as an Acquisition Test, and the entire test was automatically recorded and analyzed with Noldus Ethovision 7.0 program (Noldus Information Technology, USA).
In addition, after finishing the Acquisition Test performed for four (4) days, the Probe test was carried out at fifth day. […] The whole test procedure was automatically recorded and analyzed with Noldus Ethovision 7.0 program (Noldus Information Technology, USA).

APP endocytosis = APP endocytosis rate (confocal microscopy, reversible biotinylation); assay type: cell-based, human
Experimental: To test the endocytosis rate of App, 5×10^5 cells of HeLa cell line transfected with amyloid precursor protein (APP) as the substantially same method as Experimental Examples 6 and 7, seeded on poly-D-lysine coated cover glass and incubated for 24 hours. Then, 1 uM Justicidin A and APP antibody (1:100 diluted, SIG-39320, Covance) treated for 45 min at 4° C., washed out to remove free APP antibodies with culture fluid at three times. The cells were incubated at 37° C., starting endocytosis temperature, for 10, 30, and 60 min, and fixed by 4% paraformaldehyde for 15 min. Then, the cells were permeabilized by 0.1% triton X-100 for 5 min, and APP was marked by secondary fluorescent-labeled antibody (1:200 diluted, A11001, Invitrogen).
The change in the location of APP at various times was measured by confocal microscopy (LSM510, Zeiss, Germany) at 488 nm. […] (0 min). The endocytosis started at 37° C. […]
APP fluorescent intensity remained in plasma membrane compared to APP fluorescent intensity in plasma membrane at 0 min was measured.
For quantitative measurement of APP endocytosis rate, a reversible biotinylation method was used. […]
The result of western blotting was measured by band intensity to show the amount of intracellular APP (FIG. 10b; % internalization) with respect to total maAPP on the cell membrane (FIG. 10a).

[2] = test system: PC12 cell treated with Aβ25-35; assay: Protection against cellular toxicity induced by Aβ25-35; assay type: cell-based; settings: 30 uM Aβ25-35, 48 hrs
Experimental: To identify the protecting effect against cellular toxicity induced by Aβ, PC12 cell was treated with Justicidin A and Aβ25-35 and measured cell viability. More particularly, 1.5×10^4 cells of PC12 were seeded to each well of 96-well plate, and incubated for 24 hrs. Then, the plate was treated with various concentrations of Justicidin A 30 min, treated 30 uM Aβ25-35, and incubated for 48 hrs. Cell viability was measured by Cell counting kit-8 to show the result FIG. 12b.

For `COc1cc2c(OC)c3c(c(-c4ccc5c(c4)OCO5)c2cc1OC)C(=O)OC3` [Justicidin A], the “amount of maAPP in the cell membrane, by treatment time” value ([1]; 0.1 uM, 10 min to 240 min) was “the amount of maAPP in the cell membrane as the treatment time increased”, the “amount of maAPP (biotinylated APP) in plasma membrane, by concentration” value ([1]; 0.03, 0.1, and 0.25 uM, 1 hour) was “amount of maAPP increased in plasma membrane in a concentration-dependent manner” and the “memory and learning ability (acquisition and probe test)” value (male ICR mouse) was “equivalent or higher memory and learning ability”. For the same compound, the “APP endocytosis (reversible biotinylation)” value (APP endocytosis; 1 uM pre-treated, 5, 10, 30 min at 37° C.) was “showed reduced endocytosis of APP”, the “APP endocytosis (APP fluorescent intensity remaining in plasma membrane)” value (APP endocytosis; 1 uM pre-treatment, confocal microscopy, 10, 30, 60 min at 37° C.) was “APP endocytosis was delayed” and the “toxicity induced by Aβ25-35” value [2] was “reduced the toxicity induced by Aβ25-35 in a concentration-dependent manner”.
